Calls of active or inactive are those of the source.
Legend:
[1] = Trypanosoma cruzi growth suppression in host cells – NIH3T3 host cells, beta-gal luminescence, confirmation (AID 2044); format: functional, cell-based;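 also: intracellular parasites grown in NIH/3T3 mouse fibroblasts as host cells; luminescent beta-galactosidase reporter signal from transgenic T. cruzi replicating inside host cells; inhibitors lower the luminescence signal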
[2] = target: T1, Apoptotic protease-activating factor 1 (Homo sapiens, UniProt O14727); format: functional
T1 sequence (O14727 whole entry): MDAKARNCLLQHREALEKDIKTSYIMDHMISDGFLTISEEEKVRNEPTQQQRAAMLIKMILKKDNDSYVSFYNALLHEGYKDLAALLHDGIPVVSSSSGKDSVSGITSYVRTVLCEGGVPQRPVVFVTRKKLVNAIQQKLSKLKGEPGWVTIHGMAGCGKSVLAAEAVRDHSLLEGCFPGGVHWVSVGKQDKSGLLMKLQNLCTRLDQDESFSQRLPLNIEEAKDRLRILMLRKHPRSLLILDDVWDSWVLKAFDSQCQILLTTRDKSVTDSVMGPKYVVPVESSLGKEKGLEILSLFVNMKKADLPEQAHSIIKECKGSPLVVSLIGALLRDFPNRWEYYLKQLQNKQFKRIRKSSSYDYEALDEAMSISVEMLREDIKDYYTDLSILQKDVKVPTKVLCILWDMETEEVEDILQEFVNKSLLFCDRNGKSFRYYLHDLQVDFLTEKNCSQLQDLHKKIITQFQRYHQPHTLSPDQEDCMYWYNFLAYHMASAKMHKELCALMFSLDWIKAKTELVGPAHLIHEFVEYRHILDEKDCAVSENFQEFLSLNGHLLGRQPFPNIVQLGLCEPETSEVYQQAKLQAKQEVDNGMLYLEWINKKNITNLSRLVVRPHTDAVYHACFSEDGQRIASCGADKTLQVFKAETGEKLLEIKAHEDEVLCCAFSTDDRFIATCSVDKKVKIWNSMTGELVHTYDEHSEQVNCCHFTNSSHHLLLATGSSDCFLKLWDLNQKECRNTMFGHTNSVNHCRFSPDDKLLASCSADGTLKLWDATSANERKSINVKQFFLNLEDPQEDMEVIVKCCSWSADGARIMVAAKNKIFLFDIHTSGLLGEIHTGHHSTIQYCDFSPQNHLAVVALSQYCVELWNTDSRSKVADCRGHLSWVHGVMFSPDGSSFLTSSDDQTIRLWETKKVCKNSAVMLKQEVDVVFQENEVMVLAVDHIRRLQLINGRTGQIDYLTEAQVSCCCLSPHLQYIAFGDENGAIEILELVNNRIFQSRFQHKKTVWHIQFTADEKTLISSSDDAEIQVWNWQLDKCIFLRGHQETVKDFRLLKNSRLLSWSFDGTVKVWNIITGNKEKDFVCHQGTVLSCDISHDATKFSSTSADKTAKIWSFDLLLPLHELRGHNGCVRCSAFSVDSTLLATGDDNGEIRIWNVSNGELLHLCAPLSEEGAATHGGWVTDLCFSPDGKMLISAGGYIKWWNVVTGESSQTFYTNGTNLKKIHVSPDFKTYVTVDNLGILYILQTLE

[3] = Luminescence Cell-Based Dose Response HTS to Identify Inhibitors of 5'UTR Stem-Loop Driven Prion Protein mRNA Translation in H4 Neuroglioblastoma Cells. [Related pubchem assays: 1827 (Project Summary), 1813 (Primary HTS)]; format: functional
[4] = tested on: Streptococcus sp. 'group A'; experiment: Streptococcus pyogenes SK(-)GAS viability under kanamycin – luminescence, BacTiterGlo, confirmation, counter-screen for streptokinase expression inhibitor project, dose response (AID 1900); format: functional, organism-based
[5] = IC50 of Artemis nuclease activity blockers – biochemical, fluorescence intensity, dose response (AID 720701); format: functional;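 also: Artemis endonuclease enzyme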
[6] = NIH3T3 cell viability loss – ATP luminescence, mouse fibroblasts, counter-screen, dose response (AID 2010); format: functional, cell-based;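 also: cells exposed to compound for about 90 hours before reading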
Protein RecA = target: T2, Protein RecA (Mycobacterium tuberculosis, UniProt P9WHJ3); experiment: Fluorescence Cell-Free Homogeneous Dose Retest to Identify Inhibitors of RecA-Intein Splicing Activity. [Related pubchem assays (depositor defined):AID2097, AID2223, AID489010, AID492950]; format: functional
T2 sequence (P9WHJ3 whole entry): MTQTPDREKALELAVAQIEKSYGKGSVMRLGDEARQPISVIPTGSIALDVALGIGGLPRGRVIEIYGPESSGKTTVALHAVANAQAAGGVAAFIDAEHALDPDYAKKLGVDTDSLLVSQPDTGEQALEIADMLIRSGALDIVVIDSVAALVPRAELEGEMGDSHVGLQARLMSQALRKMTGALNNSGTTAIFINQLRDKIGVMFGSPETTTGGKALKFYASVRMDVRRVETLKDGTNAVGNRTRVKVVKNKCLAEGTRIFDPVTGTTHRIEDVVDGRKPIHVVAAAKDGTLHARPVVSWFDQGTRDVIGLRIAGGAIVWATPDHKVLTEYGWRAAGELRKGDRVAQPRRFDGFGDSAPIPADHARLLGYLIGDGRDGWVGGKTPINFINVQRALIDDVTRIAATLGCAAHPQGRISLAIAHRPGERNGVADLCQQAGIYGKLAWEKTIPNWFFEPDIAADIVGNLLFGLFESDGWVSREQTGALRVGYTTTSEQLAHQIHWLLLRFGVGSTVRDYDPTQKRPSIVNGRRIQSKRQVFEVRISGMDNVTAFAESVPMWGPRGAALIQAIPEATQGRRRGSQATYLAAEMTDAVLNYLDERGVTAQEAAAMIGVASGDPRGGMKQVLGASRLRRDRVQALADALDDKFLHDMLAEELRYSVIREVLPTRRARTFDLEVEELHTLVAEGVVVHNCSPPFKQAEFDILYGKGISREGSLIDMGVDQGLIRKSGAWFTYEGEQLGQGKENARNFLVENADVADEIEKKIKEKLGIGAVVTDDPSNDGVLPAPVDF

[7] = luciferase reporter signal suppression in cells – H4 neuroglioma cells, luminescence, dose response (AID 1990); format: functional, cell-based
[8] = alpha-synuclein stem-loop luciferase translation blockers – H4 neuroglioma cells, luminescence, confirmation (AID 1988); format: functional, cell-based
[9] = target: T3, Replicative DNA helicase DnaB (Mycobacterium tuberculosis, UniProt P9WMR3); experiment: DnaB intein splicing inhibitors, dose response, biochemical, cell-free fluorescence (AID 449749); format: functional
T3 sequence (P9WMR3 whole entry): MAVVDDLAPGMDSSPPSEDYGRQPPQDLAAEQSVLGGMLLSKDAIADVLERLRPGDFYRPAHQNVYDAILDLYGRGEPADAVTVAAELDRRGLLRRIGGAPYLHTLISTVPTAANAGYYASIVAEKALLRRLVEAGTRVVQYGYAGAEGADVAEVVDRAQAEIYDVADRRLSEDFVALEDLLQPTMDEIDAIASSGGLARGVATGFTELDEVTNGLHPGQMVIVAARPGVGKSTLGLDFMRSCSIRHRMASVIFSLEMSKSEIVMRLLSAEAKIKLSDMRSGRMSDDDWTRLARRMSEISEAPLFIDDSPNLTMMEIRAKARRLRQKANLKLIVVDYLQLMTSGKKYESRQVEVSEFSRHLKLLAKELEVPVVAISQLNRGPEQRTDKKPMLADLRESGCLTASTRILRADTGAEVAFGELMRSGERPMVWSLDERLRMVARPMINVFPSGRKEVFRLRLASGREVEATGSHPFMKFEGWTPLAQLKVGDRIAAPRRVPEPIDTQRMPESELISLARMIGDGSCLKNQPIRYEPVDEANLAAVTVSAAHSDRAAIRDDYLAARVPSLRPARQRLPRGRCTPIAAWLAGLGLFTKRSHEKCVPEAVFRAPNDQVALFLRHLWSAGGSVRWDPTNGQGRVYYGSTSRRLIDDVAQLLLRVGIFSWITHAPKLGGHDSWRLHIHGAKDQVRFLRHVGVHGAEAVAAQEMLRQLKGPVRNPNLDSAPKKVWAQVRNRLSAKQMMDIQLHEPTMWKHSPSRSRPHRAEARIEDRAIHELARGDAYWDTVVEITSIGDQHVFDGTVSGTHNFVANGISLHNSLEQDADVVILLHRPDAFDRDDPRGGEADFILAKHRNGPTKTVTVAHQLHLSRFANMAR

Streptococcus = experiment: GAS UMAA2166 growth inhibition – luminescence, BacTiterGlo, counter-screen for streptokinase expression inhibitor project, dose response (AID 1915); format: functional, organism-based;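 also: potency for reduction of bacterial viability or growth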
[10] = target: NAD-dependent protein deacylase sirtuin-5, mitochondrial (Homo sapiens, UniProt Q9NXA8); experiment: sirtuin-5 deacylation blockers, concentration series – biochemical, fluorescence imaging, cherry-pick, set 5, dose response (AID 720591);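 also: desuccinylation of succinyl peptide AMC substrate read as fluorescence after trypsin release; potency of inhibitors that lower fluorescence and may act on trypsin instead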
Sequence of NAD-dependent protein deacylase sirtuin-5, mitochondrial (Q9NXA8 whole entry): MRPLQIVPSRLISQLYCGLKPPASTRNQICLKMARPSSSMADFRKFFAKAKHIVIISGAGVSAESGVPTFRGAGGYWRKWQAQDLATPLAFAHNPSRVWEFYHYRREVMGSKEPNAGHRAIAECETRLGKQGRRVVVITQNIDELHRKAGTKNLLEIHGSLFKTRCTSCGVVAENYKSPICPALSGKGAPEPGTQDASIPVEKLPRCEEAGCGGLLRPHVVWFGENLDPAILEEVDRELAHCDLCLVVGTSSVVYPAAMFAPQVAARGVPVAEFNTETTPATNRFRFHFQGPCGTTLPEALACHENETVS

Protein Tat = Protein Tat (Human immunodeficiency virus type 1 group M subtype B (isolate HXB2)(HIV-1), UniProt P04608); format: functional;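 also: tat binding to TAR RNA read out by fluorescence polarization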
Sequence of Protein Tat (P04608 whole entry): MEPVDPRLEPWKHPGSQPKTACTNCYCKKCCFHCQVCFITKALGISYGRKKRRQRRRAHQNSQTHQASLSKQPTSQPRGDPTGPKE

Large T antigen = Large T antigen (Simian virus 40, UniProt P03070); format: functional, Betapolyomavirus macacae;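 also: Confirmatory-stage PubChem screen for compounds that inhibit SV40 T antigen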
Sequence of Large T antigen (P03070 whole entry): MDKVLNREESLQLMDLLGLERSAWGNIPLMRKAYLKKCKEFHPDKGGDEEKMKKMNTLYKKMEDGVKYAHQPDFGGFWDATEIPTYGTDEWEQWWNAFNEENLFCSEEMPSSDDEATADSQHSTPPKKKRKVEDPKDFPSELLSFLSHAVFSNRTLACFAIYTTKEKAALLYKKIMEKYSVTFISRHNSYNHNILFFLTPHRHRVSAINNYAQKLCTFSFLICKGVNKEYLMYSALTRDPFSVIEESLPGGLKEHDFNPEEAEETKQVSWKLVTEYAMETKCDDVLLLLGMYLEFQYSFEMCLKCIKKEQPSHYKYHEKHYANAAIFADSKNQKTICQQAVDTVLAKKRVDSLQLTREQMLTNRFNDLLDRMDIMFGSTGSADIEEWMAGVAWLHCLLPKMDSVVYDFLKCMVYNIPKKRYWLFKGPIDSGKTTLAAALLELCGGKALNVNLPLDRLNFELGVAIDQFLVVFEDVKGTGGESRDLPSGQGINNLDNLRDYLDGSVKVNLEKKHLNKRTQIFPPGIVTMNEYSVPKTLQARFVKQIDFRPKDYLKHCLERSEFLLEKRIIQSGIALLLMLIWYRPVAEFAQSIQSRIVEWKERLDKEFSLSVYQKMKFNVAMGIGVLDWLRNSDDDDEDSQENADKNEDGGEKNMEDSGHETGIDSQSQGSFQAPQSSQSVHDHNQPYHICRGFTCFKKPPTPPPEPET

[11] = glucagon-like peptide-1 release potency in STC-1, concentration-response, half-maximal inhibitory concentration in the STC-1 line (AID 1117345); format: functional, cell-based
[12] = IC50 of insulin release inhibition, rat insulinoma INS-1E line, 5 mM glucose, cell-based (AID 1117331); format: functional
[13] = Potency on glucagon-like peptide 1 release, dose-response in NCI-H716 cell line, half maximal inhibitory concentration (AID 1117344); format: functional, cell-based
[14] = Late-stage results from the probe development effort to identify antagonists of arginine vasopressin receptor 1a (AVPR1a): fluorescence-based cell-based dose response OXTR inhibition counterscreen assay.; format: functional
Vasopressin V1b receptor = Vasopressin V1b receptor (Homo sapiens, UniProt P47901); experiment: Late-stage results from the probe development effort to identify antagonists of arginine vasopressin receptor 1a (AVPR1a): fluorescence-based cell-based dose response AVPR1b inhibition counterscreen assay.; format: functional
Sequence of Vasopressin V1b receptor (P47901 whole entry): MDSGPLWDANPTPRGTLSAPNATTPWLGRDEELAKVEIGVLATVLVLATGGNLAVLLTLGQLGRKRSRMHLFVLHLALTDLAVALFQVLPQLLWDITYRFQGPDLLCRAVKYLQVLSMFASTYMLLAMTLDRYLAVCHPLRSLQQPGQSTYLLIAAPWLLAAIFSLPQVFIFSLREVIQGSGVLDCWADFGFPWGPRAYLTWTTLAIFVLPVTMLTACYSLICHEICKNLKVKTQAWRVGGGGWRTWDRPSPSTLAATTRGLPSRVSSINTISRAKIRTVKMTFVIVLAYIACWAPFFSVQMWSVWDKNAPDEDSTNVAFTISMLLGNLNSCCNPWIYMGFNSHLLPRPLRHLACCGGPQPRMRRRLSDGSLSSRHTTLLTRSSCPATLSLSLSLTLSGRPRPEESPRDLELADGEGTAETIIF

Vasopressin V2 receptor = Vasopressin V2 receptor (Homo sapiens, UniProt P30518); experiment: Late-stage results from the probe development effort to identify antagonists of arginine vasopressin receptor 1a (AVPR1a): fluorescence-based cell-based dose response AVPR2 inhibition counterscreen assay.; format: functional
Sequence of Vasopressin V2 receptor (P30518 whole entry): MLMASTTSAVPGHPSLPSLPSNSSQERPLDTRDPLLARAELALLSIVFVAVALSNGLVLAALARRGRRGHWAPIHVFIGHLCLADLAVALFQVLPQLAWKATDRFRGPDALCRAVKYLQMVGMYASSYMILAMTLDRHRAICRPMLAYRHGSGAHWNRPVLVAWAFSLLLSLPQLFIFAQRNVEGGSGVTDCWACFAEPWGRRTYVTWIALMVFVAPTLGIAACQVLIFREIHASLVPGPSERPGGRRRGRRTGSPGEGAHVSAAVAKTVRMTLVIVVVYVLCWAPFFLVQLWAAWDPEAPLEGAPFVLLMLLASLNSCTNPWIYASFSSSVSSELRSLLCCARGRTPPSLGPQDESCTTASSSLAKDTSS

[15] = Late-stage results from the probe development effort to identify antagonists of arginine vasopressin receptor 1a (AVPR1a): fluorescence-based cell-based dose response AVPR1a inhibition assay.; format: functional
[16] = inhibition of fibronectin matrix deposition – AH1F cells, Alexa488-fibronectin fluorescence, cherry-pick, set 2, dose response (AID 1117283); format: functional, cell-based

Q: Which EC50 [1] does the source give for `O=C1c2ccccc2C(=O)c2c1oc(C(F)(F)F)c2C(=O)c1ccccc1` here?
A: Its EC50 is 1.76 µM (active).

Q: What about the IC50 [2] of the same molecule?
A: Its IC50 is 4.72 µM (active).

Q: What about the EC50 [3] of the same molecule?
A: The EC50 was 7.26 µM (active).

Q: What about the EC50 [4] of the same molecule?
A: The EC50 was 2.11 µM (active).

Q: And the IC50 [5]?
A: The IC50 was > 20 µM (inactive).

Q: And the EC50 [6]?
A: The EC50 was > 60 µM (not active).

Q: What about the EC50 (Protein RecA) of the same molecule?
A: Its EC50 is 15.3 µM (active).

Q: What about the EC50 [7] of the same molecule?
A: Its EC50 is 6.73 µM (active).

Q: And the EC50 [8]?
A: Its EC50 is 3.37 µM (active).

Q: And the AC50 [9]?
A: Its AC50 is > 380 µM (inconclusive).

Q: What about the EC50 (Streptococcus) of the same molecule?
A: Its EC50 is 2.41 µM (active).

Q: With `COc1ccc(OCC(=O)Nc2ccc(C(=O)Nc3ccccc3C(=O)O)cc2)cc1` as the molecule, how does the AC50 [10] read?
A: Its AC50 is > 30 µM (inactive).

Q: Which results are given for `NC(=O)c1ccc(N2CCN(c3ccc(O)cc3)CC2)c([N+](=O)[O-])c1`?
A: IC50 (Protein Tat): > 100 µM (active); IC50 (Large T antigen): 8.31 µM (active)

Q: For `Cc1cc(O)c2c(O)c3c(O)cccc3cc2c1`, which IC50 [11] is on record?
A: Its IC50 is 11.3 µM (inactive).

Q: And the IC50 [12]?
A: The IC50 was > 33.3 µM (inactive).

Q: And the IC50 [13]?
A: The IC50 was > 20 µM (inactive).

Q: For `Cc1ccccc1N1CCN(C(=O)N(CC2CC2)c2ccccc2)CC1`, which IC50 [14] is on record?
A: Its IC50 is 4.9 µM (active).

Q: What about the IC50 (Vasopressin V1b receptor) of the same molecule?
A: Its IC50 is 22 µM (inactive).

Q: And the IC50 (Vasopressin V2 receptor)?
A: Its IC50 is 4.89 µM (active).

Q: What about the IC50 [15] of the same molecule?
A: The IC50 was 0.019 µM (active).

Q: For `CCN(C(=O)N1CCN(c2ccccc2C)CC1)c1ccc(OC)cc1`, which IC50 [14] is on record?
A: Its IC50 is 0.5 µM (active).

Q: What about the IC50 (Vasopressin V1b receptor) of the same molecule?
A: The IC50 was 8.81 µM (active).

Q: What about the IC50 (Vasopressin V2 receptor) of the same molecule?
A: The IC50 was 6 µM (active).

Q: And the IC50 [15]?
A: The IC50 was 0.062 µM (active).

Q: For `C[C@H](O)C#Cc1ccc2c(c1)O[C@H](CN(C)C)[C@@H](C)CN([C@@H](C)CO)S2(=O)=O`, which AC50 [16] is on record?
A: Its AC50 is > 70 µM (inactive).

Source: ChEMBL document CHEMBL1201862, “PubChem BioAssay data set” (2004)
